Reference: BigSolDB 2.1

`OC[C@@H](O)C(O)[C@@H](O)CO` (some centres undefined) showed a solubility (mole fraction) (in acetone, 293.15 K) of 0.000202, a solubility (mole fraction) (in acetone, 298.15 K) of 0.00024 and a solubility (mole fraction) (in acetone, 303.15 K) of 0.000302. The solubility (mole fraction) (in acetone, 308.15 K) was 0.000399, the solubility (mole fraction) (in acetone, 313.15 K) was 0.000542 and the solubility (mole fraction) (in acetone, 318.15 K) was 0.000739. It also gave a solubility (mole fraction) (in acetone, 323.15 K) of 0.001, a solubility (mole fraction) (in ethanol, 293.15 K) of 0.00172 and a solubility (mole fraction) (in ethanol, 298.15 K) of 0.0024. It also gave a solubility (mole fraction) (in ethanol, 303.15 K) of 0.00309, a solubility (mole fraction) (in ethanol, 308.15 K) of 0.00396 and a solubility (mole fraction) (in ethanol, 313.15 K) of 0.00521. It also gave a solubility (mole fraction) (in ethanol, 318.15 K) of 0.00703 and a solubility (mole fraction) (in ethanol, 323.15 K) of 0.0096.
